# In patent US20260355165A1, “2,3,4,9-TETRAHYDRO-1H-PYRIDO[3,4-B]INDOLE DERIVATIVES AS ESTROGEN RECEPTOR MODULATORS FOR THE TREATMENT OF CANCER” (Olema Pharmaceuticals, Inc., priority 2022, published 2026):
# Target: T1, estrogen receptor (Homo sapiens, UniProt P03372)
# T1 construct: endogenous in cells; host or cells: ECC-1 cells
# T1 sequence (P03372 1-595): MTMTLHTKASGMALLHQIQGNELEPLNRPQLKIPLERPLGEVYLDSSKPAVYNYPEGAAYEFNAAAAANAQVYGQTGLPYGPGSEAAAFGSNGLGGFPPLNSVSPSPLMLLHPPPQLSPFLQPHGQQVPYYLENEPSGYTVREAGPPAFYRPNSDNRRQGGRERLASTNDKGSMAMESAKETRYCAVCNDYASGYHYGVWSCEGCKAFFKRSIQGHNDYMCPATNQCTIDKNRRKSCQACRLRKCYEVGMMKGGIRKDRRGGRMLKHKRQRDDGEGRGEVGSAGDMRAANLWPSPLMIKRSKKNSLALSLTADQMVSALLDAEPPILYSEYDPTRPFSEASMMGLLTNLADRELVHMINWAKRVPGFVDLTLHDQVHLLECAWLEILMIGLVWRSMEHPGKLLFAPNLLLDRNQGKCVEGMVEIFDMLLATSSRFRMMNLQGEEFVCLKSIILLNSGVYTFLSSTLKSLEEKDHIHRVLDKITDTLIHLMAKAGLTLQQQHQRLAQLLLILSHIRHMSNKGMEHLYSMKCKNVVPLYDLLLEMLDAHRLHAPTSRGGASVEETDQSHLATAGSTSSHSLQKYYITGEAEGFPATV
# Assay: AP assay (alkaline phosphatase activity in ECC-1 cells), agonist mode (absence of E2) and antagonist mode (presence of 500 pM E2)
# Type: cell-based
# Conditions: 3 days, AP activity normalized to 500 pM E2 alone, agonist and antagonist mode combined
# Procedure: ECC-1 cells were trypsinized and resuspended in hormone-depleted media and plated at a density of 15 k cells per well into a 96-well plate for at least 4 hours. Cells were treated with test compounds in the absence of E2 (for agonist mode) or in the presence of 500 pM E2 (for antagonist mode) for 3 days and plates were subsequently frozen at −80 °C. Thawed plates were incubated with a chromogenic substrate of AP, p-nitrophenyl phosphate (Thermo Fisher Scientific), for 40 minutes at 42 °C, and absorbances were read at 405 nm. AP activity was normalized to the activity of 500 pM E2 alone.
# The compound numbers correspond to the compound numbers of Table 1 and 2. Compounds having an activity designated as “+” provided estrogen receptor agonism having (i) at least 80% increase in the E2-normalized signal in the AP assay (agonist mode) and (ii) no more than 80% reduction in the E2-normalized signal in the AP assay (antagonist mode). Compounds having an activity designated as “++” provided estrogen receptor antagonism having (i) between 10% and 80% increase in the E2-normalized signal in the AP assay (agonist mode) and (ii) between 10% and 80% reduction in the E2-normalized signal in the AP assay (antagonist mode).
row,Structure (SMILES),"Activity (estrogen receptor modulation, e.g., agonism and antagonism)"
1,"C[C@@H]1Cc2c([nH]c3ccccc23)[C@@H](c2n[nH]c3cc(CN4CC5(CC(O)C5)C4)ccc23)N1CC(C)(C)F [Compound I-31, 2-[[3-[(1S,3R)-2-(2-fluoro-2-methyl-propyl)-3-methyl-1,3,4,9-tetrahydropyrido[3,4-b]indol-1-yl]-1H-indazol-6-yl]methyl]-2-azaspiro[3.3]heptan-6-ol]",+ (estrogen receptor agonism having (i) at least 80% increase in the E2-normalized signal in the AP assay (agonist mode) and (ii) no more than 80% reduction in the E2-normalized signal in the AP assay (antagonist mode))
2,"C[C@@H]1Cc2c([nH]c3ccccc23)[C@@H](c2n[nH]c3cc(CN4CC(C#N)C4)ccc23)N1CC(C)(C)F [Compound I-32, 1-[[3-[(1S,3R)-2-(2-fluoro-2-methyl-propyl)-3-methyl-1,3,4,9-tetrahydropyrido[3,4-b]indol-1-yl]-1H-indazol-6-yl]methyl]azetidine-3-carbonitrile]",+ (estrogen receptor agonism having (i) at least 80% increase in the E2-normalized signal in the AP assay (agonist mode) and (ii) no more than 80% reduction in the E2-normalized signal in the AP assay (antagonist mode))
3,"C[C@@H]1Cc2c([nH]c3ccccc23)[C@@H](c2n[nH]c3cc(CN4CC5(CC(F)C5)C4)ccc23)N1CC(C)(C)F [Compound I-33, (1S,3R)-1-[6-[(6-fluoro-2-azaspiro[3.3]heptan-2-yl)methyl]-1H-indazol-3-yl]-2-(2-fluoro-2-methyl-propyl)-3-methyl-1,3,4,9-tetrahydropyrido[3,4-b]indole]",+++ (estrogen receptor antagonism (i) with pIC50 greater than 7.5 and at least a 10% reduction in the E2-normalized signal in the AP assay (antagonist mode); and (ii) no more than 10% increase in E2-normalized signal in the AP assay (agonist mode))
4,"C[C@@H]1Cc2c([nH]c3ccccc23)[C@@H](c2n[nH]c3cc(CN4CCC45CC(F)(F)C5)ccc23)N1CC(C)(C)F [Compound I-34, (1S,3R)-1-[6-[(6,6-difluoro-1-azaspiro[3.3]heptan-1-yl)methyl]-1H-indazol-3-yl]-2-(2-fluoro-2-methyl-propyl)-3-methyl-1,3,4,9-tetrahydropyrido[3,4-b]indole]",+ (estrogen receptor agonism having (i) at least 80% increase in the E2-normalized signal in the AP assay (agonist mode) and (ii) no more than 80% reduction in the E2-normalized signal in the AP assay (antagonist mode))
5,"C[C@@H]1Cc2c([nH]c3ccccc23)[C@@H](c2n[nH]c3cc(CN4CC(CF)C4)ccc23)N1CC(F)F [Compound I-36, (1S,3R)-2-(2,2-difluoroethyl)-1-(6-((3-(fluoromethyl)azetidin-1-yl)methyl)-1H-indazol-3-yl)-3-methyl-2,3,4,9-tetrahydro-1H-pyrido[3,4-b]indole]",++ (estrogen receptor antagonism having (i) between 10% and 80% increase in the E2-normalized signal in the AP assay (agonist mode) and (ii) between 10% and 80% reduction in the E2-normalized signal in the AP assay (antagonist mode))
6,"CC1CN(Cc2ccc3c([C@@H]4c5[nH]c6ccccc6c5C[C@@H](C)N4CC(F)F)n[nH]c3c2)C1 [Compound I-37, (1S,3R)-2-(2,2-difluoroethyl)-3-methyl-1-(6-((3-methylazetidin-1-yl)methyl)-1H-indazol-3-yl)-2,3,4,9-tetrahydro-1H-pyrido[3,4-b]indole]",++ (estrogen receptor antagonism having (i) between 10% and 80% increase in the E2-normalized signal in the AP assay (agonist mode) and (ii) between 10% and 80% reduction in the E2-normalized signal in the AP assay (antagonist mode))
7,"C[C@@H]1Cc2c([nH]c3ccccc23)[C@@H](c2n[nH]c3cc(CN4CC5(COC5)C4)ccc23)N1CC(F)F [Compound I-39, 6-((3-((1S,3R)-2-(2,2-difluoroethyl)-3-methyl-2,3,4,9-tetrahydro-1H-pyrido[3,4-b]indol-1-yl)-1H-indazol-6-yl)methyl)-2-oxa-6-azaspiro[3.3]heptane]",++ (estrogen receptor antagonism having (i) between 10% and 80% increase in the E2-normalized signal in the AP assay (agonist mode) and (ii) between 10% and 80% reduction in the E2-normalized signal in the AP assay (antagonist mode))
8,"C[C@@H]1Cc2c([nH]c3ccccc23)[C@@H](c2ccc3[nH]c(CN4CC(CF)C4)cc3c2)N1CC(C)(C)F [Compound I-40, (1R,3R)-1-[2-[[3-(fluoromethyl)azetidin-1-yl]methyl]-1H-indol-5-yl]-2-(2-fluoro-2-methyl-propyl)-3-methyl-1,3,4,9-tetrahydropyrido[3,4-b]indole]",+++ (estrogen receptor antagonism (i) with pIC50 greater than 7.5 and at least a 10% reduction in the E2-normalized signal in the AP assay (antagonist mode); and (ii) no more than 10% increase in E2-normalized signal in the AP assay (agonist mode))
9,"C[C@@H]1Cc2c([nH]c3ccccc23)[C@@H](c2cc3cc(CN4CC(CF)C4)ccc3[nH]2)N1CC(C)(C)F [Compound I-41, (1R,3R)-1-[5-[[3-(fluoromethyl)azetidin-1-yl]methyl]-1H-indol-2-yl]-2-(2-fluoro-2-methyl-propyl)-3-methyl-1,3,4,9-tetrahydropyrido[3,4-b]indole]",++ (estrogen receptor antagonism having (i) between 10% and 80% increase in the E2-normalized signal in the AP assay (agonist mode) and (ii) between 10% and 80% reduction in the E2-normalized signal in the AP assay (antagonist mode))
10,"CC1CN(Cc2cc3cc([C@@H]4c5[nH]c6ccccc6c5C[C@@H](C)N4CC(C)(C)F)ccc3[nH]2)C1 [Compound I-42, (1R,3R)-2-(2-fluoro-2-methyl-propyl)-3-methyl-1-[2-[(3-methylazetidin-1-yl)methyl]-1H-indol-5-yl]-1,3,4,9-tetrahydropyrido[3,4-b]indole]",++ (estrogen receptor antagonism having (i) between 10% and 80% increase in the E2-normalized signal in the AP assay (agonist mode) and (ii) between 10% and 80% reduction in the E2-normalized signal in the AP assay (antagonist mode))
11,"C[C@@H]1Cc2c([nH]c3ccccc23)[C@@H](c2ccc3[nH]c(CN4CC5CC5C4)cc3c2)N1CC(C)(C)F (stereo partly drawn) [Compound I-43, (1R,3R)-1-[2-(3-azabicyclo[3.1.0]hexan-3-ylmethyl)-1H-indol-5-yl]-2-(2-fluoro-2-methyl-propyl)-3-methyl-1,3,4,9-tetrahydropyrido[3,4-b]indole]",+ (estrogen receptor agonism having (i) at least 80% increase in the E2-normalized signal in the AP assay (agonist mode) and (ii) no more than 80% reduction in the E2-normalized signal in the AP assay (antagonist mode))
12,"C[C@@H]1Cc2c([nH]c3ccccc23)[C@@H](c2ccc3[nH]c(CN4CC5(CCC5)C4)cc3c2)N1CC(C)(C)F [Compound I-44, (1R,3R)-1-[2-(2-azaspiro[3.3]heptan-2-ylmethyl)-1H-indol-5-yl]-2-(2-fluoro-2-methyl-propyl)-3-methyl-1,3,4,9-tetrahydropyrido[3,4-b]indole]",++ (estrogen receptor antagonism having (i) between 10% and 80% increase in the E2-normalized signal in the AP assay (agonist mode) and (ii) between 10% and 80% reduction in the E2-normalized signal in the AP assay (antagonist mode))
